This note sets out measurements from patent US8883782B2, “Spiro-tetracyclic ring compounds as beta-secretase modulators and methods of use” (Amgen Inc., priority 2010, dated 2014).

Each structure is given as a SMILES string. Bounds are passed on as bounds.

Assay [1] concerns the target Beta Secretase enzyme (BACE) (Homo sapiens, UniProt P56817). Nature of the assay: In vitro enzymatic BACE FRET (fluorescence resonance energy transfer) assay. As to conditions: average IC50, enzyme assay; read-out: BACE 1 FRET assay. Type of assay: biochemical. In outline: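 Enzyme activity was measured at pH 4.2 (0.05 M acetate, 10% DMSO final, 100 uM genapol) by cleavage of a 50 nM quenched fluorogenic peptide. After one hour, Tris was added to neutralise the pH and fluorescence was recorded.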

Assay [2] concerns Aβ40 in conditioned medium of cells stably expressing Amyloid Precursor Protein (APP). Nature of the assay: In vitro BACE cell-based assay (Aβ40 in conditioned medium, sandwich ELISA). The following applies: Homo sapiens, HEK293, average IC50; read-out: HEK cell assay. A digest of the protocol:
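Secreted Aβ40 is captured with pAb40 and detected with biotinylated 6E10, read by europium time-resolved fluorescence. IC50 comes from percent inhibition versus concentration.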

Beta Secretase enzyme (BACE), sequence (P56817 46-501, species assumed): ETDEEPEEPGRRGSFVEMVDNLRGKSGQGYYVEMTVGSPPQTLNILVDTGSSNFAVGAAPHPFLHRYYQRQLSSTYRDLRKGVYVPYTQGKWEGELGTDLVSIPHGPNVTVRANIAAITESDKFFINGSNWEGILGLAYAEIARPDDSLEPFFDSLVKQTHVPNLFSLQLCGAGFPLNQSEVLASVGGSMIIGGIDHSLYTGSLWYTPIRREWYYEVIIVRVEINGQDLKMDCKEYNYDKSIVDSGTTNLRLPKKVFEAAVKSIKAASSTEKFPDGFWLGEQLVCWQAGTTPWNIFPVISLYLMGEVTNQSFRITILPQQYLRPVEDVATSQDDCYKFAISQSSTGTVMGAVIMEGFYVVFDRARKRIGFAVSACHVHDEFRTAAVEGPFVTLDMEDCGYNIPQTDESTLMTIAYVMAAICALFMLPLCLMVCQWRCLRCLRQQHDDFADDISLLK

On to `CC1(C#Cc2cc3c(c(F)n2)Oc2ccc(-c4cccnc4F)cc2C32COC(N)=N2)COC1` (stereo not shown) [Example 733, 1-fluoro-7-(2-fluoro-3-pyridinyl)-3-((3-methyl-3-oxetanyl)ethynyl)spiro[chromeno[2,3-c]pyridine-5,4′-[1,3]oxazol]-2′-amine], for which the values for the IC50 in assay [1] and in assay [2] were 1.1 nM and 18 nM, respectively.
For `NC1=N[C@@]2(CO1)c1cc(-c3cccnc3F)ccc1Oc1c2cc(Br)nc1F` [Example 734, (5S)-3-bromo-1-fluoro-7-(2-fluoro-3-pyridinyl)spiro[chromeno[2,3-c]pyridine-5,4′-[1,3]oxazol]-2′-amine], in that order: 7.8 nM and 2260 nM.
Taken in the same sequence, the figures for `NC1=NC2(CO1)c1cc(-c3cccnc3F)ccc1Oc1c2cc(C#Cc2cccnc2)nc1F` (stereo not shown) [Example 735, 1-fluoro-7-(2-fluoro-3-pyridinyl)-3-(3-pyridinylethynyl)spiro[chromeno[2,3-c]pyridine-5,4′-[1,3]oxazol]-2′-amine] were 0.9 nM and 131 nM.
As for `NC1=N[C@]2(CO1)c1cc(-c3cccnc3F)ccc1Oc1c2cc(Br)nc1F` [Example 736, (5R)-3-bromo-1-fluoro-7-(2-fluoro-3-pyridinyl)spiro[chromeno[2,3-c]pyridine-5,4′-[1,3]oxazol]-2′-amine], the IC50 is 2090 nM in assay [1] and at least 10000 nM in assay [2].
With `CC1(C#Cc2cc3c(c(F)n2)Oc2ccc(-c4cccnc4F)cc2[C@]32COC(N)=N2)COC1` [Example 737, (5R)-1-fluoro-7-(2-fluoro-3-pyridinyl)-3-((3-methyl-3-oxetanyl)ethynyl)spiro[chromeno[2,3-c]pyridine-5,4′-[1,3]oxazol]-2′-amine], the IC50 is 116 nM in assay [1] and 4330 nM in assay [2].
As for `CC1(C#Cc2cc3c(c(F)n2)Oc2ccc(-c4cccnc4F)cc2[C@@]32COC(N)=N2)COC1` [Example 738, (5S)-1-fluoro-7-(2-fluoro-3-pyridinyl)-3-((3-methyl-3-oxetanyl)ethynyl)spiro[chromeno[2,3-c]pyridine-5,4′-[1,3]oxazol]-2′-amine], the IC50 in assay [1] was 0.6 nM; in assay [2], 10 nM.
For `CC#Cc1cncc(-c2ccc3c(c2)[C@@]2(COC(N)=N2)c2cc(-c4ccncc4)nc(F)c2O3)c1` [Example 739, (5S)-1-fluoro-7-(5-(1-propyn-1-yl)-3-pyridinyl)-3-(4-pyridinyl)spiro[chromeno[2,3-c]pyridine-5,4′-[1,3]oxazol]-2′-amine], in that order: 0.5 nM and 5 nM.
With `CC#Cc1cncc(-c2ccc3c(c2)[C@@]2(COC(N)=N2)c2cc(-c4ccnc(C)c4)nc(F)c2O3)c1` [Example 740, (5S)-1-fluoro-3-(2-methyl-4-pyridinyl)-7-(5-(1-propyn-1-yl)-3-pyridinyl)spiro[chromeno[2,3-c]pyridine-5,4′-[1,3]oxazol]-2′-amine], the results for the IC50 in assay [1] and in assay [2] were 0.8 nM and 8 nM, respectively.
For `CC#Cc1cncc(-c2ccc3c(c2)[C@@]2(COC(N)=N2)c2cc(-c4ccc(C)nc4)nc(F)c2O3)c1` [Example 741, (5S)-1-fluoro-3-(6-methyl-3-pyridinyl)-7-(5-(1-propyn-1-yl)-3-pyridinyl)spiro[chromeno[2,3-c]pyridine-5,4′-[1,3]oxazol]-2′-amine], in that order: 0.4 nM and 4 nM.
Consider `N#Cc1cccc(-c2ccc3c(c2)[C@@]2(COC(N)=N2)c2cc(C4=CCCOC4)nc(F)c2O3)c1` [Example 742, 3-((5S)-2′-amino-3-(5,6-dihydro-2H-pyran-3-yl)-1-fluorospiro[chromeno[2,3-c]pyridine-5,4′-[1,3]oxazol]-7-yl)benzonitrile], for which the IC50 in assay [1] stood at 0.4 nM; in assay [2], 8 nM.
For the molecule `N#Cc1cccc(-c2ccc3c(c2)[C@@]2(COC(N)=N2)c2cc(C4=CCOCC4)nc(F)c2O3)c1` [Example 743, 3-((5S)-2′-amino-3-(3,6-dihydro-2H-pyran-4-yl)-1-fluorospiro[chromeno[2,3-c]pyridine-5,4′-[1,3]oxazol]-7-yl)benzonitrile], the IC50 in assay [1] was 0.4 nM; in assay [2], 6 nM.
Taken in the same sequence, the figures for `Cc1cc(-c2cc3c(c(F)n2)Oc2ccc(-c4cccnc4F)cc2[C@@]32COC(N)=N2)ccn1` [Example 744, (5S)-1-fluoro-7-(2-fluoro-3-pyridinyl)-3-(2-methyl-4-pyridinyl)spiro[chromeno[2,3-c]pyridine-5,4′-[1,3]oxazol]-2′-amine] were 0.8 nM and 12 nM.
On to `NC1=N[C@]2(CO1)c1cc(-c3cccnc3F)ccc1Oc1c2cc(C#Cc2cccnc2)nc1F` [Example 747, (5R)-1-fluoro-7-(2-fluoro-3-pyridinyl)-3-(3-pyridinylethynyl)spiro[chromeno[2,3-c]pyridine-5,4′-[1,3]oxazol]-2′-amine], for which the IC50 in assay [1] was 1120 nM; in assay [2], at least 10000 nM.
For `NC1=N[C@@]2(CO1)c1cc(-c3cccnc3F)ccc1Oc1c2cc(C#Cc2cccnc2)nc1F` [Example 748, (5S)-1-fluoro-7-(2-fluoro-3-pyridinyl)-3-(3-pyridinylethynyl)spiro[chromeno[2,3-c]pyridine-5,4′-[1,3]oxazol]-2′-amine], in that order: 0.4 nM and 74 nM.
Taken in the same sequence, the figures for `CC#Cc1cncc(-c2ccc3c(c2)C2(COC(N)=N2)c2cc(C4CCOCC4)nc(F)c2O3)c1` (stereo not shown) [Example 750, 1-fluoro-7-(5-(1-propyn-1-yl)-3-pyridinyl)-3-(tetrahydro-2H-pyran-4-yl)spiro[chromeno[2,3-c]pyridine-5,4′-[1,3]oxazol]-2′-amine] were 0.7 nM and 4 nM.
In the case of `N#Cc1cccc(-c2ccc3c(c2)C2(COC(N)=N2)c2cc(C4CCOCC4)nc(F)c2O3)c1` (stereo not shown) [Example 751, 3-(2′-amino-1-fluoro-3-(tetrahydro-2H-pyran-4-yl)spiro[chromeno[2,3-c]pyridine-5,4′-[1,3]oxazol]-7-yl)benzonitrile], the IC50 in assay [1] stood at 3.2 nM; in assay [2] it was 42 nM.
Regarding `NC1=NC2(CO1)c1cc(-c3cccnc3)ccc1Oc1c2cc(C2CCOCC2)nc1F` (stereo not shown) [Example 752, 1-fluoro-7-(3-pyridinyl)-3-(tetrahydro-2H-pyran-4-yl)spiro[chromeno[2,3-c]pyridine-5,4′-[1,3]oxazol]-2′-amine], the IC50 worked out at 5.6 nM in assay [1] and 77 nM in assay [2].
For `CC#Cc1cncc(-c2ccc3c(c2)[C@@]2(COC(N)=N2)c2cc(C4CCOCC4)nc(F)c2O3)c1` [Example 753, (5S)-1-fluoro-7-(5-(1-propyn-1-yl)-3-pyridinyl)-3-(tetrahydro-2H-pyran-4-yl)spiro[chromeno[2,3-c]pyridine-5,4′-[1,3]oxazol]-2′-amine], the IC50 in assay [1] worked out at 0.7 nM; in assay [2] it was 4 nM.
For `CC#Cc1cncc(-c2ccc3c(c2)[C@]2(COC(N)=N2)c2cc(C4CCOCC4)nc(F)c2O3)c1` [Example 754, (5R)-1-fluoro-7-(5-(1-propyn-1-yl)-3-pyridinyl)-3-(tetrahydro-2H-pyran-4-yl)spiro[chromeno[2,3-c]pyridine-5,4′-[1,3]oxazol]-2′-amine], in that order: 156 nM and 691 nM.
For `CC#Cc1cncc(-c2ccc3c(c2)[C@@]2(COC(N)=N2)c2cc(C4=CCCOC4)nc(F)c2O3)c1` [Example 758, (5S)-3-(5,6-dihydro-2H-pyran-3-yl)-1-fluoro-7-(5-(1-propyn-1-yl)-3-pyridinyl)spiro[chromeno[2,3-c]pyridine-5,4′-[1,3]oxazol]-2′-amine], in that order: 0.4 nM and 2 nM.
For `CC#Cc1cncc(-c2ccc3c(c2)[C@@]2(COC(N)=N2)c2cc(C4=CCOCC4)nc(F)c2O3)c1` [Example 760, (5S)-3-(3,6-dihydro-2H-pyran-4-yl)-1-fluoro-7-(5-(1-propyn-1-yl)-3-pyridinyl)spiro[chromeno[2,3-c]pyridine-5,4′-[1,3]oxazol]-2′-amine], the IC50 in assay [1] worked out at 0.3 nM; in assay [2], 2 nM.
Taken in the same sequence, the figures for `CC#Cc1cncc(-c2ccc3c(c2)[C@@]2(COC(N)=N2)c2cc(Cl)nc(F)c2O3)c1` [Example 761, (5S)-3-chloro-1-fluoro-7-(5-(1-propyn-1-yl)-3-pyridinyl)spiro[chromeno[2,3-c]pyridine-5,4′-[1,3]oxazol]-2′-amine] were 0.9 nM and 185 nM.
For `N#Cc1cccc(-c2ccc3c(c2)[C@@]2(CSC(N)=N2)c2cc(C4=CCOCC4)cnc2O3)c1F` [Example 763, 3-((5S)-2′-amino-3-(3,6-dihydro-2H-pyran-4-yl)spiro[chromeno[2,3-b]pyridine-5,4′-[1,3]thiazol]-7-yl)-2-fluorobenzonitrile], in that order: 2.1 nM and 17 nM.
Taken in the same sequence, the figures for `N#Cc1cc(-c2ccc3c(c2)[C@@]2(CSC(N)=N2)c2cc(C4=CCOCC4)cnc2O3)ccc1F` [Example 764, 5-((5S)-2′-amino-3-(3,6-dihydro-2H-pyran-4-yl)spiro[chromeno[2,3-b]pyridine-5,4′-[1,3]thiazol]-7-yl)-2-fluorobenzonitrile] were 0.6 nM and 6 nM.
As for `NC1=N[C@@]2(CS1)c1cc(-c3cccnc3F)ccc1Oc1ncc(-c3cccnc3)cc12` [Example 765, (5S)-7-(2-fluoro-3-pyridinyl)-3-(3-pyridinyl)spiro[chromeno[2,3-b]pyridine-5,4′-[1,3]thiazol]-2′-amine], the IC50 in assay [1] was 1 nM; in assay [2], 8 nM.
For `Cc1ccc(-c2cnc3c(c2)[C@]2(CSC(N)=N2)c2cc(-c4cnccc4F)ccc2O3)cn1` [Example 766, (5S)-7-(4-fluoro-3-pyridinyl)-3-(6-methyl-3-pyridinyl)spiro[chromeno[2,3-b]pyridine-5,4′-[1,3]thiazol]-2′-amine], in that order: 1.2 nM and 10 nM.
